The text below walks through data of patent US10214710B2, “Intercalated bleach compositions, related methods of manufacture and use” (The Clorox Company, priority 2013, dated 2019).

Series [1] can be described thus: Relative ratings of solid hypochlorite bleach products. The following applies: relative rating.
A short description of series [2]: Differential scanning calorimetry (DSC) thermodynamic stability and adjuvant compatibility. In kind it is physicochemical.
The nature of series [3]: pH buffering and hypochlorite release on HCl addition. The class given is physicochemical. How it is done:
The buffering characteristics of the MIB compositions, as well as the ability to accelerate release of hypochlorite through addition of an acid were tested. It is believed that the MgO and/or Mg(OH)2 component present within the intercalated bleach compound acts to buffer the pH to a preferred region (e.g., about 8 to about 11.5) for enhanced hypochlorite stability. FIG. 4A plots the pH profile over time as hydrochloric acid (HCl) is added to the MIB aqueous solution at periodic intervals.
FIG. 4B plots the concentration of hypochlorite in solution (ppm of OCl) as a function of how many millimoles of HCl are added.
FIGS. 5A-5B plot similar data as described above with respect to FIGS. 4A-4B, but for a dibasic magnesium hypochlorite composition including 34% available chlorine by weight. […] As such, the dibasic magnesium hypochlorite is not capable of maintaining a relatively high pH for the solution, as are the MIB compositions. Such improved buffering capacity (i.e., the ability to maintain a higher pH for longer) greatly improves the stability of the bleach composition.

Series [4] in a line: Humidity stability, storage at 80° F. and 80% relative humidity. The class given is physicochemical. Here is the method:
In addition to the stability testing described above, the magnesium intercalated bleach compositions were tested for their resistance to humidity (i.e., their ability to resist degradation upon exposure to humidity). The results were compared with the humidity stability of alternative solid hypochlorite releasing products, specifically dibasic magnesium hypochlorite and a mixture of calcium hypochlorite and magnesium oxide. […] As shown, the initial weight percent hypochlorite was measured. Some samples were stored open, while others were stored closed, and the weight percentage of remaining hypochlorite was measured after the 2 month storage.
Two MIB samples were tested.

As to Trichloromelamine, in series [1], the “Moisture Tolerance” value was 3 and the “Solution Clarity” value is 1.
As to `[Ca+2].[O-]Cl.[O-]Cl` [Calcium hypochlorite, calcium hypochlorite], in series [1], the “Bleach Stability” value is 3, the “Moisture Tolerance” value is recorded as 3 and the “Solution Clarity” value is 3. For the same compound, the “energy given off in exothermic decomposition” value in series [2] (FIG. 7B) is given as 401 J/g. For the same compound, in series [2] (endothermic for MIB, exothermic for calcium hypochlorite), the decomposition reaction temperature entry is “about 212 °C”.
With `O=c1nc([O-])n(Cl)c(=O)n1Cl.[Na+]` [sodium dichloroisocyanurate], the exothermic decomposition reactions result in series [2] (temperature range of 10° C. to 200° C., FIG. 7C) is “no exothermic decomposition reactions”.
As for `O=C1CN(Cl)C(=O)N1Cl` [Dichlorohydantoin], in series [1], the “Bleach Stability” value is 5, the “Moisture Tolerance” value is recorded as 1 and the “Solution Clarity” value turned out to be 1.
On to “Mg(OCl)2.2Mg(OH)2 [dibasic magnesium hypochlorite]”, for which the “hypochlorite (bleach) release as a function of HCl added” value in series [3] (FIG. 4B / 5B) was “not significantly aided by acid addition”. For the same compound, the “pH (buffering) recovery after HCl addition” value in series [3] (HCl added at periodic intervals, FIG. 4A / 5A) is “significantly slower and less complete”. In series [4] (2 months, 80° F., 80% relative humidity, stored open), the “hypochlorite remaining, open sample” value is on record as around 0 % by weight. Besides, the initial hypochlorite concentration entry in series [4] (before the 2 month storage, FIG. 3A) is “about 25 % by weight”.
In the case of `[Li+].[O-]Cl` [Li(OCl)2, lithium hypochlorite], in series [1], the “Bleach Stability” value is reported as 1, the “Moisture Tolerance” value is recorded as 3 and the “Solution Clarity” value is reported as 5.
“sodium hypochlorite phosphate adduct [Na(OCl)2 phosphate adduct]”: in series [1], the “Bleach Stability” value worked out at 1, the “Moisture Tolerance” value is given as 3 and the “Solution Clarity” value is listed as 5.
